Data published in patent US20240182481A1 (Tango Therapeutics, Inc., priority 2021, published 2024).
pIC50: −log10 of the molar value.

Experiments:
[1] = molecular target: USP1-UAF1 (Homo sapiens, UniProt O94782); test: Ubiquitin Rhodamine assay for USP1-UAF1 activity; type: biochemical
Description: Certain compounds of the disclosure were assessed for USP1-UAF1 activity in a Ubiquitin Rhodamine assay as described in Example 135.

[2] = system: MDA-MB-436 (BRCA1 mutant) cell line; test: Viability assay in BRCA1 mutant cell line MDA-MB-436; type: cell-based; settings: Homo sapiens, MDA-MB-436, viability, BRCA1 mutant MDA-MB-436; read-out: MDA-MB-436 rel IC50
Source text: (§1) Table 1 also indicates IC50 values in a viability assay for a non-isogenic pair of BRCA1 mutant (column 5—MDA-MB-436) and BRCA1 WT (column 6—HCC1954) cell lines. These values indicate the effect of treatment with compound on cell survival.

[3] = system: HCC1954 (BRCA1 WT) cell line; test: Viability assay in BRCA1 WT cell line HCC1954; type: cell-based; settings: for pIC50: Homo sapiens, read-out: HCC 1954 IC50 rel IC50
Source text: as §1

[4] = system: monoubiquitinated PCNA; test: AlphaLISA assay measuring monoubiquitinated PCNA in MDA-MB-436; type: cell-based; settings: Homo sapiens, read-out: Alpha LISA IC50
Source text: Table 1 also indicates IC50 values for exemplary compounds in an AlphaLISA assay measuring monoubiquitinated PCNA in a BRCA1 mutant cell line (MDA-MB-436; column 7).

Sequence of USP1-UAF1 (O94782 whole entry): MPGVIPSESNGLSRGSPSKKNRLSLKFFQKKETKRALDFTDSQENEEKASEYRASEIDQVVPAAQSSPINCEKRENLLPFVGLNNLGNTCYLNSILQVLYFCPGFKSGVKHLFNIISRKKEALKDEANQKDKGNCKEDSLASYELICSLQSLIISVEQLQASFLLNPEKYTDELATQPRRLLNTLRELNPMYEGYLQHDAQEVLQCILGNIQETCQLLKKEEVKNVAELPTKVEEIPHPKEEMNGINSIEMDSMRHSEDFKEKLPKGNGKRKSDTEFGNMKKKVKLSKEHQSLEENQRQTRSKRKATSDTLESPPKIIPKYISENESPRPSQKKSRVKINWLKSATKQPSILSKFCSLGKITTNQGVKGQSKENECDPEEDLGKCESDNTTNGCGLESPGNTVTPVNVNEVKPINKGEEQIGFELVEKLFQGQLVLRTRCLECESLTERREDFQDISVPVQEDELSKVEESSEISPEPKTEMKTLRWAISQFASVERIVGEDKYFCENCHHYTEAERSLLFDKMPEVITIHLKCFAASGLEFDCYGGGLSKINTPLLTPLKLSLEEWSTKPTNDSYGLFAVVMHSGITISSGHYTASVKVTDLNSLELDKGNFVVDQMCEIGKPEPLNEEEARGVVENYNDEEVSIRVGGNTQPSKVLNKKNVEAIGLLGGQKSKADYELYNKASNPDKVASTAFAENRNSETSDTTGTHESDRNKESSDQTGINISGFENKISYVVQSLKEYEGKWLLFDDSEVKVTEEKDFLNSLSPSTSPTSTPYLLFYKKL
Sequence of USP1-UAF1 (Q8TAF3 whole entry partner): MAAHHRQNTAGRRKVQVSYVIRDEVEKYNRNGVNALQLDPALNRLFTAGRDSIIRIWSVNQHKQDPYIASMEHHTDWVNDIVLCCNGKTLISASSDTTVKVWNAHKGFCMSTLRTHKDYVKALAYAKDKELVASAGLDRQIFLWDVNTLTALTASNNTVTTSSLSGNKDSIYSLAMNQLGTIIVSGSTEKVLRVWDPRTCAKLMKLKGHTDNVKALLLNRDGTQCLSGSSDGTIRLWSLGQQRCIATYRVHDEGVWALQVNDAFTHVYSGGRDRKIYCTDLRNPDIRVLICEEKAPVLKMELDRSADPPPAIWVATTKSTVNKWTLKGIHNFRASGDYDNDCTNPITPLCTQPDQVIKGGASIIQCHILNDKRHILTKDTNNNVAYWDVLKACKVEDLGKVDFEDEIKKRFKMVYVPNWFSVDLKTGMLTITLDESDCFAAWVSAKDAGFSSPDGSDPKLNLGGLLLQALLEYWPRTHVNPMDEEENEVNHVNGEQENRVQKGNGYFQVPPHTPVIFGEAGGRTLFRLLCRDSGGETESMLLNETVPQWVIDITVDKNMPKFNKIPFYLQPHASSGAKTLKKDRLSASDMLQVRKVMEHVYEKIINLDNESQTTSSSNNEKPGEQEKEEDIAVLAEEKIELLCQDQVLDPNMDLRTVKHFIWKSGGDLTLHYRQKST

| pIC50 [1] | pIC50 [2] | pIC50 [3] | pIC50 [4] | HCC 1954 IC50 rel IC50 [3] | SMILES |
| --- | --- | --- | --- | --- | --- |
| 5.00 to 7.00 | 5.00 to 6.60 | ≤ 5.00 | 5.00 to 6.60 | – | COc1ncnc(C2CC2)c1-c1ncc2[nH]cc(Cc3ccc(-c4nc(C#N)cn4C)cc3)c2n1 [Compound 31, 2-[4-[[2-(4-cyclopropyl-6-methoxy-pyrimidin-5-yl)-5H-pyrrolo[3,2-d]pyrimidin-7-yl]methyl]phenyl]-1-methyl-imidazole-4-carbonitrile] |
| > 7.52 | > 7.00 | ≤ 5.00 | > 7.00 | – | CCn1cc(C(F)(F)F)nc1-c1ccc(Cc2nn(C)c3cnc(-c4c(OC)ncnc4C4CC4)nc23)cc1 [Compound 106, 5-(4-cyclopropyl-6-methoxypyrimidin-5-yl)-3-(4-(1-ethyl-4-(trifluoromethyl)-1H-imidazol-2-yl)benzyl)-1-methyl-1H-pyrazolo[4,3-d]pyrimidine] |
| > 7.52 | > 7.00 | 5.00 to 6.60 | 6.60 to 7.00 | – | COc1ncnc(C2CC2)c1-c1ncc2[nH]nc(Cc3ccc(-n4nc(C(F)(F)F)cc4OC)cc3)c2n1 [Compound 140, 5-(4-cyclopropyl-6-methoxy-pyrimidin-5-yl)-3-[[4-[5-methoxy-3-(trifluoromethyl)pyrazol-1-yl]phenyl]methyl]-1H-pyrazolo[4,3-d]pyrimidine] |
| 7.00 to 7.52 | > 7.00 | ≤ 5.00 | 6.60 to 7.00 | – | COc1ccnc(C2CC2)c1-c1ncc2[nH]cc(Cc3ccc(-c4nc(C(F)(F)F)cn4C)cc3)c2n1 [Compound 161] |
| 7.00 to 7.52 | > 7.00 | ≤ 5.00 | > 7.00 | – | CC(C)c1ccccc1-c1ncc2[nH]cc(C(O)c3ccc(-c4nc(C(F)(F)F)cn4C)cc3)c2n1 (stereo not shown) [Compound 1, [2-(2-isopropylphenyl)-5H-pyrrolo[3,2-d]pyrimidin-7-yl]-[4-[1-methyl-4-(trifluoromethyl)imidazol-2-yl]phenyl]methanol] |
| > 7.52 | > 7.00 | ≤ 5.00 | > 7.00 | – | Cn1cc(C(F)(F)F)nc1-c1ccc(Cc2n[nH]c3cnc(-c4c(OC(F)F)ncnc4C4CC4)nc23)cc1 [Compound 185, 5-[4-cyclopropyl-6-(difluoromethoxy)pyrimidin-5-yl]-3-[[4-[1-methyl-4-(trifluoromethyl)imidazol-2-yl]phenyl]methyl]-1H-pyrazolo[4,3-d]pyrimidine] |
| 7.00 to 7.52 | > 7.00 | ≤ 5.00 | > 7.00 | – | COc1ncnc(C2CC2)c1-c1ncc2c(n1)c(Cc1ccc(-c3nc(C(F)(F)F)cn3C)cc1)nn2CC(F)(F)F [Compound 190, 5-(4-cyclopropyl-6-methoxy-pyrimidin-5-yl)-3-[[4-[1-methyl-4-(trifluoromethyl)imidazol-2-yl]phenyl]methyl]-1-(2,2,2-trifluoroethyl)pyrazolo[4,3-d]pyrimidine] |
| 5.00 to 7.00 | 5.00 to 6.60 | ≤ 5.00 | 5.00 to 6.60 | – | Cn1cc(C(F)(F)F)nc1-c1ccc(Sc2c[nH]c3cnc(-c4ccccc4C(F)(F)F)nc23)cc1 [Compound 84, 7-[4-[1-methyl-4-(trifluoromethyl)imidazol-2-yl]phenyl]sulfanyl-2-[2-(trifluoromethyl)phenyl]-5H-pyrrolo[3,2-d]pyrimidine] |
| 7.00 to 7.52 | > 7.00 | ≤ 5.00 | 6.60 to 7.00 | – | CC(C)n1cc(C(F)(F)F)nc1-c1ccc(Cc2c[nH]c3cnc(-c4cccnc4OC(F)F)nc23)cc1 [Compound 28, 2-[2-(difluoromethoxy)-3-pyridyl]-7-[[4-[1-isopropyl-4-(trifluoromethyl)imidazol-2-yl]phenyl]methyl]-5H-pyrrolo[3,2-d]pyrimidine] |
| 5.00 to 7.00 | 6.60 to 7.00 | ≤ 5.00 | 6.60 to 7.00 | – | CNc1ncnc(C2CC2)c1-c1ncc2[nH]cc(Cc3ccc(-c4nc(C(F)(F)F)cn4C)cc3)c2n1 [Compound 175] |
| 5.00 to 7.00 | 5.00 to 6.60 | ≤ 5.00 | 5.00 to 6.60 | – | CN(C)c1ncccc1-c1ncc2[nH]cc(Cc3ccc(-c4nc(C(F)(F)F)cn4C)cc3)c2n1 [Compound 29, N,N-dimethyl-3-[7-[[4-[1-methyl-4-(trifluoromethyl)imidazol-2-yl]phenyl]methyl]-5H-pyrrolo[3,2-d]pyrimidin-2-yl]pyridin-2-amine] |
| > 7.52 | > 7.00 | 5.00 to 6.60 | > 7.00 | – | CC(C)c1ccccc1-c1ncc2[nH]cc([C@H](C)c3ccc(-c4nc(C(F)(F)F)cn4C)cc3)c2n1 (single isomer, unassigned) [Compound 64] |
| > 7.52 | > 7.00 | 5.00 to 6.60 | > 7.00 | – | CC(C)n1cc(C(F)(F)F)nc1-c1ccc(Cc2n[nH]c3cnc(-c4c(OC(F)F)ncnc4C4CC4)nc23)cc1 [Compound 137, 5-(4-cyclopropyl-6-(difluoromethoxy)pyrimidin-5-yl)-3-(4-(1-isopropyl-4-(trifluoromethyl)-1H-imidazol-2-yl)benzyl)-1H-pyrazolo[4,3-d]pyrimidine] |
| > 7.52 | 6.60 to 7.00 | ≤ 5.00 | 6.60 to 7.00 | – | COc1ncnc(OC)c1-c1ncc2[nH]nc(Cc3ccc(-c4nc(C(F)(F)F)cn4C)cc3)c2n1 [Compound 144] |
| 5.00 to 7.00 | 6.60 to 7.00 | ≤ 5.00 | 6.60 to 7.00 | – | COc1ncnc(C2CC2)c1-c1ncc2[nH]cc(Sc3ccc(-c4nc(C(F)(F)F)cn4C)cc3)c2n1 [Compound 180] |
| 5.00 to 7.00 | 6.60 to 7.00 | ≤ 5.00 | 5.00 to 6.60 | – | COc1nccc(C)c1-c1ncc2[nH]nc(Cc3ccc(-c4nc(C(F)(F)F)cn4C)cc3)c2n1 [Compound 191] |
| > 7.52 | > 7.00 | ≤ 5.00 | > 7.00 | – | CC(C)c1ccccc1-c1cc2c(Oc3ccc(-c4nc(C(F)(F)F)cn4C)cc3)c[nH]c2cn1 [Compound 14, 5-(2-isopropylphenyl)-3-[4-[1-methyl-4-(trifluoromethyl)imidazol-2-yl]phenoxy]-1H-pyrrolo[2,3-c]pyridine] |
| > 7.52 | > 7.00 | ≤ 5.00 | > 7.00 | – | [2H]C([2H])([2H])n1cc(C(F)(F)F)nc1-c1ccc(Cc2n[nH]c3cnc(-c4c(OC)ncnc4C4CC4)nc23)cc1 [Compound 97, 5-(4-cyclopropyl-6-methoxy-pyrimidin-5-yl)-3-[[4-[1-(trideuteriomethyl)-4-(trifluoromethyl)imidazol-2-yl]phenyl]methyl]-1H-pyrazolo[4,3-d]pyrimidine] |
| > 7.52 | > 7.00 | ≤ 5.00 | > 7.00 | – | Cn1cc(C(F)(F)F)nc1-c1ccc(Cc2n[nH]c3cnc(-c4c(C5CC5)ncnc4C4CC4)nc23)cc1 [Compound 183, 5-(4,6-dicyclopropylpyrimidin-5-yl)-3-[[4-[1-methyl-4-(trifluoromethyl)imidazol-2-yl]phenyl]methyl]-1H-pyrazolo[4,3-d]pyrimidine] |
| 7.00 to 7.52 | > 7.00 | ≤ 5.00 | > 7.00 | – | COCCn1cc(Cc2ccc(-c3nc(C(F)(F)F)cn3C)cc2)c2nc(-c3c(OC)ncnc3C3CC3)ncc21 [Compound 200, 2-(4-cyclopropyl-6-methoxy-pyrimidin-5-yl)-5-(2-methoxyethyl)-7-[[4-[1-methyl-4-(trifluoromethyl)imidazol-2-yl]phenyl]methyl]pyrrolo[3,2-d]pyrimidine] |
| 7.00 to 7.52 | 5.00 to 6.60 | ≤ 5.00 | 6.60 to 7.00 | – | COc1ncccc1-c1ncc2[nH]cc(Cc3ccc(-c4nc(C(F)(F)F)cn4C)cc3)c2n1 [Compound 11, 2-(2-methoxy-3-pyridyl)-7-[[4-[1-methyl-4-(trifluoromethyl)imidazol-2-yl]phenyl]methyl]-5H-pyrrolo[3,2-d]pyrimidine] |
| 7.00 to 7.52 | > 7.00 | – | > 7.00 | dd | CC(C)n1cc(C(F)(F)F)nc1-c1ccc(C(O)c2c[nH]c3cnc(-c4c(OC(F)F)ncnc4C4CC4)nc23)cc1 (stereo not shown) [Compound 92] |
| 7.00 to 7.52 | > 7.00 | 5.00 to 6.60 | > 7.00 | – | COc1nc(C)nc(C2CC2)c1-c1ncc2[nH]nc(Cc3ccc(-c4nc(C(F)(F)F)cn4C)cc3)c2n1 [Compound 184, 5-(4-cyclopropyl-6-methoxy-2-methylpyrimidin-5-yl)-3-(4-(1-methyl-4-(trifluoromethyl)-1H-imidazol-2-yl)benzyl)-1H-pyrazolo[4,3-d]pyrimidine] |
| 5.00 to 7.00 | 6.60 to 7.00 | ≤ 5.00 | > 7.00 | – | CN1CC(n2cc(C(F)(F)F)nc2-c2ccc(Cc3c[nH]c4cnc(-c5cccnc5OC(F)F)nc34)cc2)C1 [Compound 20, 2-[2-(difluoromethoxy)-3-pyridyl]-7-[[4-[1-(1-methylazetidin-3-yl)-4-(trifluoromethyl)imidazol-2-yl]phenyl]methyl]-5H-pyrrolo[3,2-d]pyrimidine] |
| 7.00 to 7.52 | > 7.00 | ≤ 5.00 | > 7.00 | – | COc1ncnc(C2CC2)c1-c1ncc2c(n1)c(Cc1ccc(-c3nc(C(F)(F)F)cn3C)cc1)nn2C(C)C (single isomer, unassigned) [Compound 98, 5-(4-cyclopropyl-6-methoxy-pyrimidin-5-yl)-1-isopropyl-3-[[4-[1-methyl-4-(trifluoromethyl)imidazol-2-yl]phenyl]methyl]pyrazolo[4,3-d]pyrimidine] |
